Earlier results in US9023374B2, “Sanitizing compositions” (priority 2009, dated 2015).
Read-outs that look alike come from different tables or passages of the source.

Legend:
feline calicivirus [1] = details: room temperature
feline calicivirus [2] = test system: feline calicivirus

| Compound | log10 reduction of feline calicivirus (feline calicivirus [1]; after 8 minutes) | log10 reduction of feline calicivirus (feline calicivirus [1]; after 30 minutes) | inactivation of feline calicivirus (feline calicivirus [2]) |
| --- | --- | --- | --- |
| CCO [70% w/w ethanol, ethanol] | < 2 log10 | 3 log10 | – |
| CCO [ethanol] | – | – | failed to inactivate the virus |
